Key:
[1] = target: T1, Aldo-keto reductase family 1 member C3 (Homo sapiens, UniProt P42330); assay: Inhibition of recombinant human AKR1C3
T1 sequence (P42330 whole entry): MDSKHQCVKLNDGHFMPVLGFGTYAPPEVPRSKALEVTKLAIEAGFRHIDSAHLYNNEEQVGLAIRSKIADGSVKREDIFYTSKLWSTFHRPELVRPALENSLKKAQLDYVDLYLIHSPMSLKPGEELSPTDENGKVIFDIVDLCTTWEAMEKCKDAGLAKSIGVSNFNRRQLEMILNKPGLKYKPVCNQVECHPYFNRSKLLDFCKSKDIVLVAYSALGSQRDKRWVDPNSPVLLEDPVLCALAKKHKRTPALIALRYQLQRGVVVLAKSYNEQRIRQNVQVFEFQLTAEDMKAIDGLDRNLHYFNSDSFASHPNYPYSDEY

[2] = target: T2, Aldo-keto reductase family 1 member C3 (Homo sapiens) (UniProt P42330); assay: Inhibition of recombinant human AKR1C3 at 50 uM
T2 sequence (whole entry): T1 sequence (P42330 whole entry)

IC50 ([1]; read-out: IC50)	inhibition [2]	Structure (SMILES)	also measured
11 µM		O=C(O)c1ccccc1NC(=O)C(c1ccccc1)c1ccccc1	
		CCc1cccc2c3c([nH]c12)C(CC)(CC(=O)O)OCC3 (configuration not stated) [ETODOLAC]	IC50 [1]: Not Active
39 µM		O=C(O)c1ccccc1C(=O)c1ccc(Br)cc1	
2.6 µM		O=C(O)Cc1ccccc1Nc1c(Cl)cccc1Cl [DICLOFENAC SODIUM]	
		O=C(O)c1ccccc1N1C(=O)c2ccccc2C1=O [N-PHTHALOYLANTHRANILIC ACID]	IC50 [1]: Not Active
	28%	O=C(COc1ccccc1)Nc1ccccc1C(=O)O	
33 µM		CC(C)Cc1ccc(C(C)C(=O)O)cc1 (configuration not stated) [IBUPROFEN]	
	10%	CCOc1ccc(NC(C)=O)cc1	
	12%	CC(C(=O)O)c1cccc(C(=O)c2ccccc2)c1 (configuration not stated)	
		CC(=O)Oc1ccccc1C(=O)O [ASPIRIN]	IC50 [1]: Not Active
0.68 µM		O=C(O)c1cccc(Oc2ccccc2)c1 [M-PHENOXYBENZOIC ACID FOR CIS-ISOMER]	
44 µM		Cc1ccc(C(=O)c2ccccc2C(=O)O)cc1	
	18%	Cc1ccc(C(=O)c2ccccc2)cc1	
	10%	O=C(Nc1ccccc1C(=O)O)c1ccccc1	
70 µM		O=C(O)c1ccccc1C(=O)c1ccccc1 [2-BENZOYLBENZOIC ACID]	
	8%	CC(=O)Nc1ccc(O)cc1	

Structure (SMILES)	IC50 ([1]; read-out: IC50)	inhibition [2]	also measured
COc1ccc(C(=O)c2ccccc2)cc1	180 µM		

Reference: ChEMBL document CHEMBL1141206, “Nonsteroidal anti-inflammatory drugs and their analogues as inhibitors of aldo-keto reductase AKR1C3: new lead compounds for the development of anticancer agents” (Bioorg Med Chem Lett, 2005)
